Calls of active or inactive are those of the source.
Key:
Cytochrome P450 2C19 = Cytochrome P450 2C19 (Homo sapiens, UniProt P33261); assay: qHTS Assay for Inhibitors and Substrates of Cytochrome P450 2C19. [Related pubchem assays: 410 ]; type: ADME; conditions: read-out: Potency
[1] = IC50 of insulin release inhibition, rat insulinoma INS-1E line, 5 mM glucose, cell-based (AID 1117331); type: functional
[2] = HIV-1 Vif–A3G interaction blockers – biochemical, TR-FRET, GST-Vif 1-94, biotin-A3G peptide, dose response retest, primary screen (AID 1117319); type: functional;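 further: TR-FRET signal of purified GST-Vif binding a biotinylated A3G peptide; inhibitors lower the FRET signal by blocking Vif and A3G binding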
[3] = reduced cellular PGC1a acetyl-lysine signal – cell-based, cherry-picked samples, dose response (AID 720514); type: functional;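 further: potency may reflect raised or lowered acetylation signal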
[4] = general cell-killing toxicity readout – plate reader, dry powder samples, cytotoxicity control for PAX8 inhibitor project, dose response (AID 743021); type: functional, cell-based
Paired box protein Pax-8 = Paired box protein Pax-8 (Homo sapiens, UniProt Q06710); assay: PAX8 transcriptional activity inhibition in RMG-I – RMG-I cells, luciferase, cherry-pick, dose response (AID 687027); type: functional, cell-based;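 further: luciferase reporter driven by Pax8 target thyroperoxidase promoter measured by SteadyGlo luminescence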
[5] = OVCAR8 cell viability loss – plate reader, dry powder samples, PAX8 project, dose response (AID 743197); type: functional, cell-based; conditions: OVCAR-8
[6] = Dd2 parasite growth inhibition in erythrocytes – SYBR Green, dry powder samples, set 9, dose response (AID 1159568); type: functional, cell-based
[7] = P. falciparum Dd2 growth inhibitors, dose response, SYBR Green, cherry-picked samples (AID 1159567); type: functional, cell-based
[8] = OVCAR-3 cell viability loss – plate reader, dry powder samples, PAX8 inhibitor project, dose response (AID 743044); type: functional, cell-based
[9] = blockade of melanocortin 4 receptor signaling – cell-based, plate reader, cherry pick, counter-screen for LGR2 antagonist project, dose response (AID 743444); type: functional;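 further: transfected HEK 293 cells stimulated with alpha-MSH peptide; potency of inhibitors of the alpha-MSH evoked signal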
[10] = A549 cell cytotoxicity, dose response, cytotoxicity control, plate reader, cherry-pick, antagonist series (AID 743412); type: functional, cell-based
[11] = toxicity toward HepG2 liver cells – cell-based, plate reader, cherry-pick, antagonist series, cytotoxicity control, dose response (AID 743416); type: functional
[12] = T. cruzi growth inhibition in host cells, dose response, cell-based, plate reader, dry powder, set 2 (AID 652275); type: functional
[13] = Dd2 malaria parasite growth inhibition potency – SYBR Green, dry powder samples, dose response (AID 1159566); type: functional, cell-based;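 further: potency for growth inhibition with lower SYBR green DNA signal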
[14] = toxicity to human HepG2 hepatoma cells – cell-based, plate reader, dry powder samples, cytotoxicity control, dose response (AID 1159569); type: functional;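 further: inhibitor potency with signal falling toward the positive control level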
[15] = growth inhibition of yeast DHODH-expressing 3D7 parasites – SYBR Green, dry powder samples, dose response (AID 1159570); type: functional, cell-based;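 further: parasite growth measured after 72 hours of compound exposure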
[16] = growth inhibition of PfATP4-mutant resistant parasites – NITD609-resistant line, SYBR Green, dry powder, dose response (AID 1159571); type: functional, cell-based;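 further: parasites synchronized at ring stage by sorbitol before testing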
Estrogen receptor beta [17] = biological target: T1, Estrogen receptor beta (Homo sapiens, UniProt Q92731); assay: blockers of SRC-3 recruitment to ERβ – biochemical, ELISA, streptavidin-HRP readout, orthogonal assay, confirmation (AID 1060)
Estrogen receptor beta [18] = biological target: T1, Estrogen receptor beta
[19] = Counterscreen for inhibitors of Trypanosoma brucei methionyl tRNA synthetase (MetRS): Luminescence-based cell-based high throughput dose response assay to identify compounds that are cytotoxic to Jurkat human T lymphocyte cells.; type: functional
[20] = biological target: T2, DNA repair protein RAD52 homolog (Homo sapiens, UniProt P43351); type: functional, biochemical
T2 sequence (P43351 whole entry): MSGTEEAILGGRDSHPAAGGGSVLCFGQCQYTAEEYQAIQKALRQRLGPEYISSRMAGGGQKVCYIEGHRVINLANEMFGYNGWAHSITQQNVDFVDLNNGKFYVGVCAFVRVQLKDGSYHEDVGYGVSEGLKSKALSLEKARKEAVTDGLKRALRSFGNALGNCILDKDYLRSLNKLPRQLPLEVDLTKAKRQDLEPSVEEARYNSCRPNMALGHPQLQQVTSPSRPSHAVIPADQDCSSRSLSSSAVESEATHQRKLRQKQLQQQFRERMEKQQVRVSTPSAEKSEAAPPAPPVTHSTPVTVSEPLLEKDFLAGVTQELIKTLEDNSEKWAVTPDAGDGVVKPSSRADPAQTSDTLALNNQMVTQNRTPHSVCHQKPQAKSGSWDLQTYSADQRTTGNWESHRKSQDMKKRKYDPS

[21] = biological target: T3, Methionyl-tRNA synthetase, putative (Trypanosoma brucei brucei, UniProt Q38C91); type: functional, Trypanosoma brucei brucei strain 927/4 GUTat10.1
T3 sequence (Q38C91 whole entry): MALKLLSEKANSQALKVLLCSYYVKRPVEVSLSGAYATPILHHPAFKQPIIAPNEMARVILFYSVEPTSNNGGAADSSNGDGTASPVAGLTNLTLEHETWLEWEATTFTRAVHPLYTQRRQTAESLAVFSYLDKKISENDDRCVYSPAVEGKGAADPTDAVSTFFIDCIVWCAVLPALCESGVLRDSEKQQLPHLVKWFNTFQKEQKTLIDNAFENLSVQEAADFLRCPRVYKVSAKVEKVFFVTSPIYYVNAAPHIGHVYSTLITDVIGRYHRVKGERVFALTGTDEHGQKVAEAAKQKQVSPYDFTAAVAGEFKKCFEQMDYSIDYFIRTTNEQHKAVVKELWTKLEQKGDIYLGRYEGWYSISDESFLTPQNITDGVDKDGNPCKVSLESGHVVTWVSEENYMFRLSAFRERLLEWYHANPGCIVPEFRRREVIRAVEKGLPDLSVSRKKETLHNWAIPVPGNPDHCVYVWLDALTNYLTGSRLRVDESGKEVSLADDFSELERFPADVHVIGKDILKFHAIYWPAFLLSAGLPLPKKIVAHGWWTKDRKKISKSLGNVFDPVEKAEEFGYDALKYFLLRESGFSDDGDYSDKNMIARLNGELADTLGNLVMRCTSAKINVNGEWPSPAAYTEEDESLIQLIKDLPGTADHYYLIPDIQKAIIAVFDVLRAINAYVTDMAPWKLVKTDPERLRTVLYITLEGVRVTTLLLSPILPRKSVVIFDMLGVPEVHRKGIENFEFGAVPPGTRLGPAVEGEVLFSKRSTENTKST

[22] = biological target: T3, Methionyl-tRNA synthetase, putative; type: functional, Trypanosoma brucei brucei strain 927/4 GUTat10.1; remark: listed apart in the source

Chain of Paired box protein Pax-8 (Q06710 whole entry): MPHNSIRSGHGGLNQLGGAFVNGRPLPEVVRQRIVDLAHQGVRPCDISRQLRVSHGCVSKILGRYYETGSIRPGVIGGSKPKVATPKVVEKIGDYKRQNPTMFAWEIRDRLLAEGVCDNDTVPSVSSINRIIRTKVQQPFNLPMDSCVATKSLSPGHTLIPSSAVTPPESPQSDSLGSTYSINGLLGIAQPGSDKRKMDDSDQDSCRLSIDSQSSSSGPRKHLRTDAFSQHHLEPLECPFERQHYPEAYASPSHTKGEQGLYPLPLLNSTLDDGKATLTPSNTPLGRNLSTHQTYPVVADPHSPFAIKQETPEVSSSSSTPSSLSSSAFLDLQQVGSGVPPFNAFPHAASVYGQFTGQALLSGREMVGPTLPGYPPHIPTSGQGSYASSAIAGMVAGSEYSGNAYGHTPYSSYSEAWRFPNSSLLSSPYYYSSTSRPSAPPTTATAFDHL
T1 sequence (Q92731 whole entry): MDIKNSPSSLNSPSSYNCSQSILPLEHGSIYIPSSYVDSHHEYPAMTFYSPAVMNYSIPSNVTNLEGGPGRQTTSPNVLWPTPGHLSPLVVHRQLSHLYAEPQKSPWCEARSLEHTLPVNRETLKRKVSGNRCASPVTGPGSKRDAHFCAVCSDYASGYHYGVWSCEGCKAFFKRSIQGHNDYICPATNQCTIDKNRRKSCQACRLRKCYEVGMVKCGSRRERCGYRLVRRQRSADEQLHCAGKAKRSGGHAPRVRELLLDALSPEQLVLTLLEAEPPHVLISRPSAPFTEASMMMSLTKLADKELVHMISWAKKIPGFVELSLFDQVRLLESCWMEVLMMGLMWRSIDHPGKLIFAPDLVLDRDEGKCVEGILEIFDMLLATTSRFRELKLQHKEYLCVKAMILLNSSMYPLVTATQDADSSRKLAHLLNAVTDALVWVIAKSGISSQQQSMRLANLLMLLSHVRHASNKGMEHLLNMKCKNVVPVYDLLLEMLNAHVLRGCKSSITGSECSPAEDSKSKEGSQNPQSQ
Chain of Cytochrome P450 2C19 (P33261 whole entry): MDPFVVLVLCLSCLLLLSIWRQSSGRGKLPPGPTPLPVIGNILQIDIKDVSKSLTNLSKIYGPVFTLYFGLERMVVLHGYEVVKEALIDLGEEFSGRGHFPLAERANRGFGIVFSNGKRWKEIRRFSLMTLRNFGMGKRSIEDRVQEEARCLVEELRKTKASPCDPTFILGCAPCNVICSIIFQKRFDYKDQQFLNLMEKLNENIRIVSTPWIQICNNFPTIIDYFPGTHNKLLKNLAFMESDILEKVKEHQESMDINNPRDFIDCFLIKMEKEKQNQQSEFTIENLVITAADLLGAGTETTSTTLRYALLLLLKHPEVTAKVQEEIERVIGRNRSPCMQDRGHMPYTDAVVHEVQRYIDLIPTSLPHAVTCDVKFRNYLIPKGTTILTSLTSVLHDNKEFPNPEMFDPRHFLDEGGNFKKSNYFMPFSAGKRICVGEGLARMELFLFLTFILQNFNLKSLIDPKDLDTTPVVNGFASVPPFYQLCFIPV

CC(=O)c1ccc(OC2C=CC(C#Cc3ccc(Br)cc3)OC2CO)cc1 (stereo not given)
AC50 (Cytochrome P450 2C19): 3.98 µM (inconclusive)

CCCCC#CC1C=CC(OC(C)=O)C(COC(C)=O)O1 (stereo not given)
AC50 (Cytochrome P450 2C19): 7.94 µM (inconclusive)

COc1ccc2c(c1OC)C(=O)O[C@H]2[C@@H]1c2cc3c(cc2CCN1C)OCO3
IC50 [1]: > 33.3 µM (inactive)

CCOC(=O)/C(C#N)=C/c1c(OCC)n(CC)c2ccccc12
IC50 [2]: > 100 µM (active)

CCC(C)NS(=O)(=O)c1ccc(NS(=O)(=O)c2ccc(F)cc2)cc1 (stereo not given)
IC50 [2]: > 100 µM (active)

O=C(NC1CCCC1)C(c1ccncc1)N(Cc1ccccc1F)C(=O)c1csnn1 (stereo not given)
AC50 [3]: 34.7 µM (active)

COc1ccc(S(=O)(=O)Nc2ccc3c(c2)C(=O)N([C@@H](C)CO)C[C@H](C)[C@@H](CN(C)C(=O)Nc2ccc(F)cc2)OCCCC[C@H](C)O3)cc1
AC50 [4]: 59.1 µM (active)
AC50 (Paired box protein Pax-8): 9.96 µM (active)

O=C(C[C@H]1C[C@@H]2c3cc(NS(=O)(=O)c4ccc(F)cc4)ccc3O[C@@H]2[C@@H](CO)O1)N1CCc2ccccc2C1
AC50 [4]: 57.8 µM (active)
AC50 [5]: 23.9 µM (active)
AC50 [6]: 6.85 µM (active)
AC50 [7]: 9.73 µM (active)
AC50 [8]: 26.1 µM (active)
AC50 (Paired box protein Pax-8): 3.86 µM (active)
AC50 [3]: 17.5 µM (active)

C[C@H]1CN([C@@H](C)CO)C(=O)c2cc(C#CCc3ccccc3)cnc2O[C@H]1CN(C)Cc1ccccc1
AC50 [9]: 38.2 µM (active)
AC50 [10]: 23.3 µM (active)
AC50 [11]: > 52 µM (inactive)

CN(C)C(=O)c1ccc(-c2ccc([C@H]3[C@H](CO)N4CCCCN(C(=O)C5CCCC5)C[C@@H]34)cc2)cc1
AC50 [12]: 0.0488 µM (active)

COc1ccc(C#Cc2cccc(-c3nc(C(=O)NCc4ccc5c(c4)OCO5)cc4c3[C@@H](CCO)N([S+]([O-])C(C)(C)C)C4)c2)cc1OC (stereo not given in full)
AC50 [12]: 0.58 µM (active)
AC50 [13]: 0.838 µM (active)
AC50 [7]: 0.747 µM (active)
AC50 [14]: > 100 µM (inactive)
AC50 [15]: 2.05 µM (active)
AC50 [16]: 1.52 µM (active)

CN(C)C(=O)c1cccc(-c2ccc([C@H]3[C@H](CO)N4CCCCN(CC5CCOCC5)C[C@@H]34)cc2)c1
AC50 [12]: 4.63 µM (active)

CN(C)CC(=O)N1CCCCN2[C@@H](CO)[C@H](c3ccc(/C=C/c4ccccc4)cc3)[C@@H]2C1
AC50 [3]: 23.8 µM (active)

CC(=N)/C(C#N)=C(/O)CSc1nnc(Nc2ccccc2C)s1
IC50 (Estrogen receptor beta [17]): 5.18 µM (not active)
IC50 (Estrogen receptor beta [18]): 12.2 µM (active)

C[C@@H]1CCCCO[C@@H](CN(C)C(=O)Nc2cccc3ccccc23)[C@H](C)CN([C@H](C)CO)C(=O)c2cc(NC(=O)CCC(F)(F)F)ccc2O1
AC50 [6]: 1.08 µM (active)

COc1ccc(NC(=O)N(C)C[C@H]2Oc3c(NC(=O)CCCCCC(=O)Nc4ccccc4N)cccc3C(=O)N([C@@H](C)CO)C[C@H]2C)cc1
AC50 [6]: 0.983 µM (active)

COc1cc2nc(Nc3cccc(F)c3)nc(N)c2cc1OC
IC50 [19]: 35.5 µM (inactive)
AC50 [20]: 8.77 µM (active)
IC50 [21]: 18.2 µM (inactive)
IC50 [22]: 26.2 µM (inactive)

From ChEMBL document CHEMBL1201862, “PubChem BioAssay data set” (2004)
